Laboratory results reported in patent US6083958A, “Anti-HIV composition containing imidazole derivative” (Shionogi & Co., Ltd., priority 1996, dated 2000).
In brackets after ≈: the same amount, converted by molar mass.

Legend:
[1] = system: HIV-1 IIIB strain clone 3; test: Suppression of the emergence of drug resistant variants in M 8166 cells; type: cell-based; conditions: for Week of emergence of resistant mutants: CDIMI 1 ng/ml, ddC 50 ng/ml at start, doubled on viral growth; for Ratio of resistance compared to parent strain: isolated resistant virus vs parent strain
Protocol: an T cell line Molt-4 cells persistently infected with HIV-1 (IIIB strain clone 3) were cultured in RPMI-1640 medium supplemented with 10% fetal calf serum, the supernatant was filtered and stored at […], after the virus titer was determined.
One ml of the above medium containing 10^6 cells of M 8166 was added to each well of 12-well plates, and 100 μl of the above HIV-1 IIIB strain clone 3 was added, and incubated for 2 hours for virus infection. Cells were washed with the above medium, and 4 ml of the medium containing CDIMI or other anti-HIV compounds alone or their combination was added to each well and incubated in 5% CO2 incubator at 37° C. CDIMI was added at 1 ng/ml and ddC was added at 50 ng/ml respectively and the same concentrations of them were added for the combination. Cells were subcultured twice a week, and when viral growth was observed, the drug concentration of the anti-HIV compound was doubled. In the case that no viral growth was observed, the drug concentration was kept the same as that of the last culture.
Virus titer was determined using viral reverse transcriptase activity as a marker by the following method.
To 100 μl of the reaction mixture containing 50 mM Tris-HCl, pH 8.3, 150 mM KCl, 10 mM MgCl2, 0.1% Nonidet P-40, 10 mM dithiothreitol, 5 μg/ml poly(A), 5 μg/ml (dT) 12-18, and 1 μCi [^3 H] dTTP was added 10 μl of the culture supernatant, and incubated at 37° C. for 3 hours. The reaction mixture was chilled on ice and collected by a cell harvester on a DEAE-Filtermat. The filter was washed with 5% Na2 HP04.12H2 O and H2 O, and the radioactivity incorporated in DNA was measured by an LKB Beta Plate scintillation counter to determine viral reverse transcriptase activity.
When virus growth was observed, viruses were isolated and the sensitivity to each active ingredient was assayed by the usual method.

[2] = system: HIV-1 (IIIB strain clone 2); test: Synergy of anti-HIV activity, viral reverse transcriptase activity in supernatant of infected MT-4 cells (checker board); type: cell-based
Protocol: Human T cell line Molt-4 cells persistently infected with HIV-1 (IIIB strain clone 2) were cultured in RPMI-1640 medium supplemented with 10% fetal calf serum, and the supernatant was filtered and stored at -80° C. after the virus titer was determined.
The combination of these two drugs was conducted by the checker board method using 96-well microplates. […] After 4 hours, 50 μl of the culture supernatant of the above HIV-1 IIIB strain clone 2 was added, at the same time 50 μl of CDIMI in two-fold dilution was also added, followed by incubation in 5% CO2 incubator at 37° C. for 5 days.
Virus titers in the culture supernatant were calculated by taking viral reverse transcriptase activity as an index determined by the following method:
To 100 μl of a reaction mixture containing 50 mM Tris-HCl, pH 8.3, 150 mM KCl, 10 mM MgCl2, 0.1% Nonidet P-40, 10 mM dithiothreitol, 5 μg/l poly(A), 5 μg/ml (dT)12-18, and 1 μCi [^3 H]dTTP was added 10 μl of the culture supernatant, and incubated at 37° C. for 3 hours. The reaction mixture was chilled on ice and transferred by a cell harvester to a DEAE-Filtermat. The filter was washed with 5% Na2 HPO4.12H2 O and H2 O, and the radioactivity incorporated in DNA was measured by an LKB Beta Plate scintillation counter to determine viral reverse transcriptase activity.
On the assumption that the inhibition of the two anti-HIV compounds was additive, virus growth inhibition rate was calculated on all combinations of concentrations according to the formula (I)
wherein Z means an additive inhibition rate, X is an inhibition rate of CDIMI and Y is an inhibition rate of the other anti-HIV compound.
When the measured value is greater than the additive inhibition rate, namely, the value is more than 0 in Table 3, it is judged as having synergy. Synergy volume is designated as total sum of values more than 0 in Table 3.
Addition to cells of saquinavir and foscarnet was done at the same time as that of CDIMI when the virus was infected. […]

L234I = test: microbe, parasite or virus in culture; type: cell-based, HIV; conditions: Human immunodeficiency virus 1, MT4, 96 h
Protocol: (§1) The mutant clones' cDNAs were transfected to SW480 cells. The produced mutant viruses were infected to MT-4 cells in the same method as described in Experiment 1 in the presence of the drug. After 4 days, viral growth was assayed using reverse transcriptase activity as a marker.

T215Y = test: microbe, parasite or virus in culture; type: cell-based, HIV
Protocol: as §1

V106A + F227L = test: microbe, parasite or virus in culture; type: cell-based, HIV; conditions: Human immunodeficiency virus 1, MT4, 96 h
Protocol: as §1

T215Y + L234I = test: microbe, parasite or virus in culture; type: cell-based, HIV
Protocol: as §1

NL432 (Wild strain) = test: microbe, parasite or virus in culture; type: cell-based, HIV; conditions: Human immunodeficiency virus 1, MT4, 96 h
Protocol: as §1

Y181C = test: microbe, parasite or virus in culture; type: cell-based, HIV; conditions: Human immunodeficiency virus 1, MT4, 96 h
Protocol: as §1

D67N + K70R = test: microbe, parasite or virus in culture; type: cell-based, HIV
Protocol: as §1

F227C = test: microbe, parasite or virus in culture; type: cell-based, HIV; conditions: Human immunodeficiency virus 1, MT4, 96 h
Protocol: as §1

[3] = system: CDIMI resistant or AZT resistant mutant clones of HIV; test: Cross resistance of CDIMI resistant and AZT resistant mutant clones; type: cell-based
Protocol: as §1

[4] = Human immunodeficiency virus 1, MT4, 96 h

For `Nc1ccn([C@H]2CC[C@@H](CO)O2)c(=O)n1` [ddC, dideoxycytidine, reference compound], the “Week of emergence of resistant mutants” value [1] was 1 weeks and the “Ratio of resistance compared to parent strain” value [1] was 20 times.

`Cc1cn([C@H]2C[C@H](N=[N+]=[N-])[C@@H](CO)O2)c(=O)[nH]c1=O` [AZT, azidodeoxythymidine, reference compound] gave an inhibition at 0.0008 µg/mL ([2]; Human immunodeficiency virus 1, IIIB, MT4, read-out: inhibition rate Y of the other anti-HIV compound) of 43.4%.

With `CC(C)c1nc(COC(N)=O)n(Cc2ccncc2)c1Sc1cc(Cl)cc(Cl)c1` [CDIMI, 2-carbamoyloxymethyl-5-(3,5-dichlorophenylthio)-4-iropropyl-1-(pyridin-4-yl) methyl-1H-imidazole] the “Week of emergence of resistant mutants” value [1] was 4 weeks, the “Ratio of resistance compared to parent strain” value [1] was 10 times and the inhibition at 0.005 µg/mL ([2]; Human immunodeficiency virus 1, IIIB, MT4, read-out: inhibition rate X of CDIMI) was 99.6%. For the same molecule, the “reverse transcriptase inhibition rate (%)” value ([2]; ddI 0 ng/ml (Table 4), lines in order CDIMI 5, 2.5, 1.25, 0.625, 0.313, 0.16, 0.08 ng/ml, 7200 min) was 99.01%, the EC50 (L234I) was 6.8 ng/mL (≈ 15.1 nM) and the EC90 (L234I) was 14 ng/mL (≈ 31 nM). The EC50 (T215Y; [4]) was 0.17 ng/mL (≈ 0.377 nM), the EC90 (T215Y; [4]) was 0.4 ng/mL (≈ 0.886 nM) and the sensitivity of strain (T215Y; T215Y) was “equivalent to that of the wild strain”. For the same molecule, the EC50 (V106A + F227L) was 117 ng/mL (≈ 259 nM), the EC90 (V106A + F227L) was 310 ng/mL (≈ 687 nM) and the EC50 (T215Y + L234I; [4]) was 0.69 ng/mL (≈ 1.53 nM). The EC90 (T215Y + L234I; [4]) was 2.7 ng/mL (≈ 5.98 nM), the sensitivity of strain (T215Y + L234I; T215Y plus L234I) was “sensitive to CDIMI and AZT at the same level as the wild strain's” and the EC50 (NL432 (Wild strain)) was 0.31 ng/mL (≈ 0.687 nM). The EC90 (NL432 (Wild strain)) was 1.1 ng/mL (≈ 2.44 nM), the EC50 (Y181C) was 4.2 ng/mL (≈ 9.3 nM) and the EC90 (Y181C) was 18 ng/mL (≈ 39.9 nM). The sensitivity of strain (D67N + K70R; D67N plus K70R) was “equivalent to that of the wild strain”, the EC50 (D67N + K70R; [4]) was 0.31 ng/mL (≈ 0.687 nM) and the EC90 (D67N + K70R; [4]) was 1 ng/mL (≈ 2.22 nM). The EC50 (F227C) was 2.4 ng/mL (≈ 5.32 nM), the EC90 (F227C) was 9.8 ng/mL (≈ 21.7 nM) and the cross resistance [3] was “do not show cross resistance”.
